Values quoted from earlier work, collected in PMC4177305 (ChemMedChem, 2014).

Tests used:
[1] = in humans
human serum albumin = human serum albumin (Homo sapiens, UniProt P02768); conditions: reported affinity of MS-325 to human serum albumin
[2] = test system: human serum albumin (HSA); conditions: displaces site II ligands rather than site I ligands

Sequence of human serum albumin (P02768 25-609): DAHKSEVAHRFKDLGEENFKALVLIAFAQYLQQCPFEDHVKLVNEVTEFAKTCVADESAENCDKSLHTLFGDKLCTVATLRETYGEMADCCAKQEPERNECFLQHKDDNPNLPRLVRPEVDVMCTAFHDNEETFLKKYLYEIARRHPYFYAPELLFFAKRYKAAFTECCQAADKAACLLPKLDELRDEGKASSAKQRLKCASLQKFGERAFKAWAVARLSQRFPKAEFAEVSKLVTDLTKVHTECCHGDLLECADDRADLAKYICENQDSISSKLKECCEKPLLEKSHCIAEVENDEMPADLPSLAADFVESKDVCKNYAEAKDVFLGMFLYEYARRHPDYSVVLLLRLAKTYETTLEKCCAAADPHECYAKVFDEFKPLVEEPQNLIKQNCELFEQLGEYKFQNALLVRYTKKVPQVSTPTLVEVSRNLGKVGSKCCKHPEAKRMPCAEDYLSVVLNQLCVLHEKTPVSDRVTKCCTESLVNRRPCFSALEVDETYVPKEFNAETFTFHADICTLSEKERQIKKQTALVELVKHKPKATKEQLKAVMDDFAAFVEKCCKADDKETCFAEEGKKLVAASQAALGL

Question: Which results are given for `O=C([O-])CN(CCN(CC(=O)[O-])CC(COP(=O)([O-])OC1CCC(c2ccccc2)(c2ccccc2)CC1)N(CC(=O)[O-])CC(=O)[O-])CC(=O)[O-].[Gd+3].[Na+].[Na+].[Na+]` (stereo not drawn) [MS-325, gadofosveset trisodium]?
Answer: intravascular half-life [1]: 18.5 ± 3 h; Kd (human serum albumin): 164 µM; albumin binding site [2]: binds primarily to site II
